{"source": "patent US9834784B2", "about": "“Pest resistant plants” (Keygene N.V., priority 2011, dated 2017)", "molecules": {"B1": {"name": "ShZIS: 7-epizingiberene synthase protein from Solanum habrochaites, SEQ ID NO:1 (protein)", "chain": "CSHSTPSSMNGFEDARDRIRESFGKVELSPSSYDTAWVAMVPSKHSLNEPCFPQCLDWIIENQREDGSWGLNPSHPLLLKDSLSSTLACLLALTKWRVGDEQIKRGLGFIETQSWAIDNKDQISPLGFEIIFPSMIKSAEKLNLNLAINKRDSTIKRALQNEFTRNIEYMSEGFGELCDWKEIIKLHQRQNGSLFDSPATTAAALIYHQHDKKCYEYLNSILQQHKNWVPTMYPTKIHSLLCLVDTLQNLGVHRHFKSEIKKALDEIYRLWQQKNEEIFSNVTHCAMAFRLLRISYYDVSSDELAEFVDEEHFFATSGKYTSHVEILELHKASQLAIDHEKDDILDKINNWTRTFMEQKLLNNGFIDRMSKKEVELALRNFYIISDLAENRRYIKSYEENNFKILKAAYRSPNINNKDLFIFSIRDFELCQAQHQEELQQLKRWFEDCRLDQLGLSEQFISASYLCAIPIVPGPELSDARLVYAKYVMLLTIVDDHFESFASTDECLNIIELVERWDDYASVGYKSERVKVLFSMFYKSIEEIATIAEIKQGRSVKNHLINLWLKVMKLMLMERVEWCSGKTIPRIEEYLYVSSITFGSRLIPLTTQYFIGIKISKDLLESDEIYGLCNFTGIVLRLLNDLQDSKREQKEGSINLVTLLMKSISEEEAIMKMKEILEMKRRELFKMVLVQKKGSQLPQLCKEIFWRTCKWAHFTYSQTDRYRFPEEMENHIDEVFYKPLNH", "modifications": "Solanum habrochaites"}, "B2": {"name": "ObZIS: sweet lemon basil zingiberene synthase (Iijima et al., 2004), alpha-zingiberene synthase (protein, UniProt Q5SBP4 1-541, looked up)", "Alpha-zingiberene synthase": "MESRRSANYQASIWDDNFIQSLASPYAGEKYAEKAEKLKTEVKTMIDQTRDELKQLELIDNLQRLGICHHFQDLTKKILQKIYGEERNGDHQHYKEKGLHFTALRFRILRQDGYHVPQDVFSSFMNKAGDFEESLSKDTKGLVSLYEASYLSMEGETILDMAKDFSSHHLHKMVEDATDKRVANQIIHSLEMPLHRRVQKLEAIWFIQFYECGSDANPTLVELAKLDFNMVQATYQEELKRLSRWYEETGLQEKLSFARHRLAEAFLWSMGIIPEGHFGYGRMHLMKIGAYITLLDDIYDVYGTLEELQVLTEIIERWDINLLDQLPEYMQIFFLYMFNSTNELAYEILRDQGINVISNLKGLWVELSQCYFKEATWFHNGYTPTTEEYLNVACISASGPVILFSGYFTTTNPINKHELQSLERHAHSLSMILRLADDLGTSSDEMKRGDVPKAIQCFMNDTGCCEEEARQHVKRLIDAEWKKMNKDILMEKPFKNFCPTAMNLGRISMSFYEHGDGYGGPHSDTKKKMVSLFVQPMNITI"}}, "key": {"[1]": {"system": "Bemisia tabaci whiteflies", "settings": "cited from earlier work; for repellent to Bemisia tabaci whiteflies: purified compounds, Bleeker et al., Phytochemistry 2011; for attractiveness of cultivated tomato to B. tabaci after addition of the compound: compared with neighbouring siblings, Bleeker et al. 2011"}, "[2]": {"system": "fourth instar larvae of Colorado potato beetle", "settings": "Antonious et al. 2005; cited from earlier work"}, "[3]": {"system": "adult whiteflies B. tabaci", "settings": "Antonious et al. 2005; cited from earlier work"}, "B. tabaci (biotype Q)": {"system": "B. tabaci (biotype Q)", "experiment": "Clip cage bioassay B. tabaci (whitefly)", "assay_type": "in vivo, Bemisia tabaci", "settings": "clip cages, 20 adults, after 5 days; compared with S. lycopersicum C32", "method": "An interspecies cross between S. lycopersicum and S. habrochaites was performed and F2 lines were transferred to the greenhouse at the University of Amsterdam. The F2 plants were tested for their production of 7-epizingiberene. Cuttings were made of 7-epizingiberene producing F2 lines, S. lycopersicum C32 (moneymaker) and of S. habrochaites (PI127826). Both a parental line of the initial cross.\nTwo cuttings of genotypes PI127826 and C32 and the respective F2s received 4 clip cages, each of which contained 20 adult B. tabaci (biotype Q) initially collected in Almeria (Spain) and reared continuously on cucumber under laboratory conditions (see Bleeker et al., 2009—Plant Physiol.). After 5 days, the total number and percentage of dead flies and total nr of eggs (combined abaxial and adaxial side of leaves) was determined."}, "Tuta absoluta": {"system": "Tuta absoluta", "experiment": "No-choice oviposition assay Tuta absoluta", "assay_type": "in vivo", "settings": "F2 plants, FIGS. 10A and 10B", "method": "Tuta absoluta (order: Lepidoptera) were reared on tomato (S. lycopersicum). A no-choice assay was performed for 7 days. 5 adults were allowed to oviposit their eggs on S. lycopersicum (C32) plants and on F2 plants arisen from an interspecies cross between S. lycopersicum (C32) and S. habrochaites (PI127826). After 7 days, Tuta abosoluta oviposition (number of eggs deposited) was determined on the abaxial and adaxial side of six leaves per plant genotype. F2 plants were characterized for 7-epizingiberene content after the assay and Tuta abosoluta oviposition (number of eggs deposited) was correlated to the content of 7-epizingiberene."}, "[4]": {"settings": "isolated compound; previously observed by Bleeker et al. 2011; cited from earlier work"}, "[5]": {"experiment": "Enzyme activity assay with zFPP, products by enantioselective GC-MS", "assay_type": "biochemical", "settings": "heterologously expressed in E. coli; SPME, chiral column", "method": "The full length gene (comprising SEQ ID NO:4 5′ of SEQ ID NO:2 (SEQ ID NO:4-SEQ ID NO:2)) was cloned into the pGEX-KG expression vector (Guan and Dixon 1991). Constructs were transformed to C41 (DE3) E. coli cells (Dumon-Seignovert et al., 2004). As a control, empty pGEX-KG vector was transformed. A culture was grown to an OD600 of 0.5-0.6 at 37° C. and placed at 4° C. for 30 min. Protein expression was induced with 1 mM isopropyl β-D-1-thiogalactopyranoside (IPTG). After 16 hours incubation at 16° C., cells were harvested by centrifugation. The supernatant was removed and the pellet was resuspended in assay buffer (25 mM HEPES, pH 7.2, 10 mM MgCl2, 10% (v/v) glycerol) with added lysozyme (1 mg mL^−1) and proteinase inhibitors and incubated on ice for 30 minutes and subsequently sonicated. The lysate was centrifuged and the supernatant was stored at −80° C. Activity assays were performed in 500 μL 50 mM HEPES, pH7.2, 100 mM KCl, 7.5 mM MgCl2, 20 μM MgCl2, 5% (v/v) glycerol, 5 mM DTT with 50 μL protein and 2 mM cis-FPP(2Z-6Z-farnesyl diphosphate) as substrate. Enzyme products were analyzed by GC-MS with Solid Phase Micro Extraction fiber (SPME). Terpene products were identified using standards and comparing ion spectra, retention time and Kovats Index (see FIGS. 1 and 2). […]"}, "[6]": {"experiment": "Enzyme activity assay with E-E-FPP, products by enantioselective GC-MS", "assay_type": "biochemical", "settings": "heterologously expressed; SPME, chiral column", "method": "Activity assays were performed in 20 mL glass vials in a total volume of 500 μL 50 mM HEPES, pH7.2, 100 mM KCl, 7.5 mM MgCl2, 20 μM MgCl2, 5% (v/v) glycerol, 5 mM DTT with 50 μL protein and either 2 mM cis-FPP (2Z-6Z-farnesyl diphosphate), trans-FPP (E-E-farnesyl diphosphate), GPP (geranyl diphosphate), NDP (neryl diphosphate), or GGPP (geranylgeranyl diphosphate) as a substrate (Echelon Biosciences Incorporated, Salt Lake City, USA). Vials were closed with a teflon lined crimp cap immediately and incubated under moderate shaking for 1 hour at 30° C.\nEnzyme products were sampled with a Solid Phase Micro Extraction fiber (SPME) for 10 minutes after the vial had been agitated and heated to 50° C. The fiber was desorbed for 1 minute in an Optic injector port (ATAS GL Int. Zoeterwoude, NL) which was kept at 220° C. For liquid injection 1-3 μL of sample in hexane was injected.\nIn order to separate alpha-zingiberene from 7-epizingiberene the Astec CHIRALDEX™ B-DM column (30m×0.25 mm×0.12 μm film thickness; Supelco) was selected. The column was placed in an 6890 N gas chromatograph (Agilent, Amstelveen, NI). […] Helium was used as a carrier gas. Mass spectra were generated with the ion source set to −70V at 200° C. and collected with a Time-of-Flight MS (Leco, Pegasus III, St. Joseph, Mich., USA) at 1850 V, with an acquisition rate of 20 scans per second."}}}
{"molecule": "CC(C)=CCC[C@H](C)c1ccc(C)cc1", "note": "[S-curcumene]", "values": [{"measurement": "repellent to Bemisia tabaci whiteflies", "setting": "[1]", "result": "do not"}]}
{"molecule": "CCCCCCCCCC(C)=O", "note": "[2-undecanone]", "values": [{"measurement": "toxic effect against fourth instar larvae of Colorado potato beetle", "setting": "[2]", "result": "toxic effect"}]}
{"molecule": "CC(C)=CCC[C@@H](C)c1ccc(C)cc1", "note": "[R-curcumene]", "values": [{"measurement": "attractiveness of cultivated tomato to B. tabaci after addition of the compound", "setting": "[1]", "result": "less attractive"}, {"measurement": "repellent to Bemisia tabaci whiteflies", "setting": "[1]", "result": "act as repellent"}]}
{"molecule": "CCCCCCCCCCCC(C)=O", "note": "[2-tridecanone]", "values": [{"measurement": "toxic effect against adult whiteflies B. tabaci", "setting": "[3]", "result": "toxic effect"}]}
{"molecule": "CC(C)=CCC[C@H](C)[C@@H]1C=CC(C)=CC1", "note": "[alpha-zingiberene]", "values": [{"measurement": "repellent to Bemisia tabaci whiteflies", "setting": "[1]", "result": "do not"}]}
{"molecule": "CC(C)=CCC[C@@H](C)[C@@H]1C=CC(C)=CC1", "note": "[7-epizingiberene]", "values": [{"measurement": "resistance to whiteflies (adult mortality and oviposition)", "setting": "B. tabaci (biotype Q)", "result": "enhances resistance to whiteflies"}, {"measurement": "correlation of oviposition with 7-epizingiberene content", "setting": "Tuta absoluta", "result": "negatively correlated"}, {"measurement": "attractiveness of cultivated tomato to B. tabaci after addition of the compound", "setting": "[1]", "result": "less attractive"}, {"measurement": "repellent to Bemisia tabaci whiteflies", "setting": "[1]", "result": "act as repellent"}, {"measurement": "stability when exposed to air", "setting": "[4]", "result": "spontaneously convert to R-curcumene"}]}
{"molecule": "B1", "values": [{"measurement": "product formed from Z-Z-FPP", "setting": "[5]", "result": "made 7-epizingiberene"}]}
{"molecule": "B2", "values": [{"measurement": "product formed from E-E-FPP", "setting": "[6]", "result": "made alpha-zingiberene"}]}
